{"source": "paper PMC9365693", "about": "(Nature, 2022)", "key": {"[1]": {"assay": "Isothermal titration calorimetry (ITC), lipid II-containing LUVs titrated into drug", "type": "binding", "set-up": "dG / dH / -TdS: unit not given here", "description": "Isothermal titration calorimetry\nFor isothermal titration calorimetry (ITC) measurements large unilamellar vesicles (LUVs) containing lysine-lipid II were prepared by incorporating 2 mol% of lysine-lipid II in DOPC from the stock solution. The lipids were dried under a nitrogen stream and hydrated with buffer (20 mM HEPES and 50 mM NaCl, pH 7) to a lipid-phosphate concentration of 20 mM. Finally, unilamellar vesicles were obtained after ten rounds of extrusion through 200-nm membrane filters (Whatman Nuclepore, Track-Etch Membranes). ITC experiments were performed with the Affinity ITC (TA Instruments-Waters LLC) to determine interaction between LUVs and teixobactin. […] The samples were degassed before use. […] The number of injections was 23. Experiments were performed at 37 °C and analysed using the Nano Analyze Software (TA instruments-Water LLC). All experiments were performed in triplicates. Control experiments were performed with lipid II-free DOPC LUVs. The independent model was used to determine the interaction between teixobactin and lipid II. ITC data of R4L10-teixobactin were previously published."}, "[2]": {"assay": "Mobility-edited H(H)C ssNMR: membrane topology of lipid II-bound teixobactin", "details": "300 K, T2 filter 2.5 ms", "from_the_text": "(§1) T1rho trajectories were fit to single exponentials.\nExtended Data Fig. 8 The membrane topology of the complex. a) and b) show mobility-edited (‘T2-filtered’) ^1H(^1H)^13C ssNMR experiments[37] of ^13C,^15N-teixobactin bound to Lipid II. […] For each residue, peak areas were integrated using Topspin 4.06. Signals that were used for the integration are annotated. e) Membrane topology visualized with the ssNMR structure. Hydrophilic (in blue) and hydrophobic (brown) residues are sharply separated above and below the β-sheet, respectively. Note that the N-terminal Phe1 at the rim of the β-sheet has higher water accessibility, potentially because of fraying and mobility effects. f) Normalized contacts to water and lipid-tails, back-calculated over the MD simulation based on our ssNMR structure. g) Membrane topology using a different structure of the calculated ssNMR ensemble. As shown in Extended Data Fig. 9a, the despi-cycle is plastic and can point up towards the water phase, bringing End10 well-above the membrane-plane. Source data"}, "Staphylococcus simulans": {"test_system": "Staphylococcus simulans", "assay": "DiSC membrane depolarization (ion leakage) assay, S. simulans", "type": "cell-based", "details": "DiSC-2 probe, Gram-positive bacteria (Fig. 4h and Extended Data Fig. 10b,c), 20 °C, pH 7.2, 2 min before and 6 min after antibiotic; triplicates", "description": "(§2) The bacterial cultures were grown overnight at 30 °C in TSB media for S. simulans and at 37 °C in LB medium for Bacillus subtilis. Secondary cultures were grown for 3 h until OD600 = 0.5 was reached. The bacterial cells were then centrifuged at 1,500g for 10 min at 4 °C and washed twice with 10 ml of buffer (10 mM Tris, 100 mM NaCl, 1 mM MgCl2 and 0.5% glucose, pH 7.2). The bacterial cells were resuspended to an OD600 = 10 in the buffer and used for the experiment. […] For the assay, 1 μl of the bacterial suspension was added to 1 ml of buffer. For the ion leakage assays, 1 μl of the DiSC-2 probe from a 1 mM stock was added to the cuvette and the fluorescence was measured between a wavelength of 650 nm and 670 nm (bandwidth of […]) for 2 min before the addition of the antibiotic and 6 min after. For the Sytox green leakage assays, 1 μl of the Sytox green probe from a 0.25 mM stock was added to the cuvette and the fluorescence was measured between a wavelength of 500 nm and 520 nm (bandwidth of […]) for 2 min before the addition of the antibiotic and 6 min after. All experiments were performed in triplicates."}, "S. simulans": {"test_system": "S. simulans", "assay": "MIC, S. simulans (given with permeabilization assay concentrations)", "type": "cell-based", "details": "S. simulans"}, "B. subtilis": {"test_system": "B. subtilis", "assay": "MIC, B. subtilis (given with permeabilization assay concentrations)", "type": "cell-based, Bacillus subtilis", "description": "as §2"}, "[3]": {"assay": "Scalar TOBSY ssNMR: mobility of the lipid II pentapeptide in the complex", "type": "binding", "details": "8 kHz MAS, 300 K, compared with R4L10-teixobactin", "from_the_text": "as §1\nInterfacial contacts are labelled in green. Lipid II pentapeptide signals are marked with an asterisk, e.g., A1*αβ. b) Zoom into the spectrum acquired with 300 ms magnetization transfer. […] The spectrum is based on a scalar 2D ^13C^13C TOBSY[35] ssNMR experiment with the complex formed by ^13C,^15N-teixobactin and ^13C,^15N-Lipid II in liposomes acquired at 950 MHz, 8 kHz MAS, and 300 K temperature. Teixobactin and the Lipid II sugars are not visible in the spectrum (cyan). Conversely, the last three residues (Lys3-Ala4-Ala5) of the Lipid II pentapeptide give scalar signals indicating high mobility and no involvement in complex formation. […] Likewise, the K3αγ signal of the third pentapeptide residue was only visible for R4L10-teixobactin. […] All experiments were performed in triplicates. All the parameter values are shown as mean +/− SD."}, "Gram-positive pathogens": {"test_system": "Gram-positive pathogens", "details": "cited from earlier work", "description": "Antibiotics that use novel mechanisms are needed to combat antimicrobial resistance[1]–[3]. […] Here we unravel the mechanism of teixobactin at the atomic level using a combination of solid-state NMR, microscopy, in vivo assays and molecular dynamics simulations. […] (Fig. 4h and Extended Data Fig. 10b,c)."}, "[4]": {"details": "source data Figure 3e, ITC, Avg of Expt 1-3"}, "[5]": {"details": "source data Figure 3e, ITC, Expt 1"}, "[6]": {"details": "source data Figure 3e, ITC, Expt 2"}, "[7]": {"details": "source data Figure 3e, ITC, Expt 3"}}, "data": [{"substance": "teixobactin", "values": [{"measurement": "Kd", "setting": "[1]; ITC, DOPC LUVs with 2 mol% lysine-lipid II, 20 mM HEPES 50 mM NaCl pH 7, 30 μM drug, 37 °C, mean of three experiments, b18 prints ± 0.008", "value": 80, "unit": "nM"}, {"measurement": "Kd", "setting": "[1]; source data Figure 3e, ITC pH 7, 37 °C, Expt 1", "value": 67.4, "unit": "nM"}, {"measurement": "Kd", "setting": "[1]; source data Figure 3e, ITC pH 7, 37 °C, Expt 2", "value": 92, "unit": "nM"}, {"measurement": "Kd", "setting": "[1]; source data Figure 3e, ITC pH 7, 37 °C, Expt 3", "value": 68.9, "unit": "nM"}, {"measurement": "dG", "setting": "[1]; [4]", "value": -42.29}, {"measurement": "dH", "setting": "[1]; [4]", "value": -35.03}, {"measurement": "dG", "setting": "[1]; [5]", "value": -42.58}, {"measurement": "dH", "setting": "[1]; [5]", "value": -34.03}, {"measurement": "dG", "setting": "[1]; [6]", "value": -41.78}, {"measurement": "dH", "setting": "[1]; [6]", "value": -37.92}, {"measurement": "dG", "setting": "[1]; [7]", "value": -42.52}, {"measurement": "dH", "setting": "[1]; [7]", "value": -33.14}, {"measurement": "-TdS", "setting": "[1]; source data Figure 3e, ITC, Plot, avg", "value": -7.26}, {"measurement": "membrane topology (in words)", "setting": "[2]", "value": "localizes at the water–membrane interface with the hydrophobic residues Ile2, Ile5 and Ile6 partitioned in the bilayer"}, {"measurement": "decrease in membrane potential / depolarization (in words)", "setting": "Staphylococcus simulans", "value": "sharp decrease in the membrane potential"}, {"measurement": "concentration stated as 1× MIC", "setting": "S. simulans", "value": 0.5, "unit": "µM"}, {"measurement": "concentration stated as 10× MIC", "setting": "B. subtilis", "value": 0.2, "unit": "µM"}, {"measurement": "rigidity of lipid II pentapeptide in the complex (in words)", "setting": "[3]", "value": "the pentapeptide is more rigid in the complex with teixobactin than with R4L10-teixobactin"}, {"measurement": "antibacterial activity (in words)", "setting": "Gram-positive pathogens; MRSA, S. pneumoniae, vancomycin-resistant Enterococci", "value": "broad activity against multidrug-resistant Gram-positive pathogens"}, {"measurement": "bacterial killing compared with vancomycin (in words)", "setting": "Gram-positive pathogens", "value": "more effective in killing bacteria than vancomycin"}, {"measurement": "resistance (in words)", "setting": "Gram-positive pathogens", "value": "lack of resistance"}]}]}
